Experimental data taken from ChEMBL document CHEMBL5038581, “Design, synthesis, and biological evaluation of novel dual inhibitors targeting lysine specific demethylase 1 (LSD1) and histone deacetylases (HDAC) for treatment of gastric cancer” (Eur J Med Chem, 2021).

Assays:
Histone deacetylase 1 = Histone deacetylase 1 (Homo sapiens, UniProt Q13547); assay: Inhibition of HDAC1 (unknown origin) using Ac-peptide as substrate preincubated for 15 mins followed by substrate addition by fluorescence assay
Histone deacetylase 5 = Histone deacetylase 5 (Homo sapiens, UniProt Q9UQL6); assay: Inhibition of HDAC5 (unknown origin) using Ac-peptide as substrate preincubated for 15 mins followed by substrate addition by fluorescence assay
[1] = molecular target: T1, Protein deacetylase HDAC6 (Homo sapiens, UniProt Q9UBN7); assay: Inhibition of HDAC6 (unknown origin) using Ac-peptide as substrate preincubated for 15 mins followed by substrate addition by fluorescence assay
T1 sequence (Q9UBN7 whole entry): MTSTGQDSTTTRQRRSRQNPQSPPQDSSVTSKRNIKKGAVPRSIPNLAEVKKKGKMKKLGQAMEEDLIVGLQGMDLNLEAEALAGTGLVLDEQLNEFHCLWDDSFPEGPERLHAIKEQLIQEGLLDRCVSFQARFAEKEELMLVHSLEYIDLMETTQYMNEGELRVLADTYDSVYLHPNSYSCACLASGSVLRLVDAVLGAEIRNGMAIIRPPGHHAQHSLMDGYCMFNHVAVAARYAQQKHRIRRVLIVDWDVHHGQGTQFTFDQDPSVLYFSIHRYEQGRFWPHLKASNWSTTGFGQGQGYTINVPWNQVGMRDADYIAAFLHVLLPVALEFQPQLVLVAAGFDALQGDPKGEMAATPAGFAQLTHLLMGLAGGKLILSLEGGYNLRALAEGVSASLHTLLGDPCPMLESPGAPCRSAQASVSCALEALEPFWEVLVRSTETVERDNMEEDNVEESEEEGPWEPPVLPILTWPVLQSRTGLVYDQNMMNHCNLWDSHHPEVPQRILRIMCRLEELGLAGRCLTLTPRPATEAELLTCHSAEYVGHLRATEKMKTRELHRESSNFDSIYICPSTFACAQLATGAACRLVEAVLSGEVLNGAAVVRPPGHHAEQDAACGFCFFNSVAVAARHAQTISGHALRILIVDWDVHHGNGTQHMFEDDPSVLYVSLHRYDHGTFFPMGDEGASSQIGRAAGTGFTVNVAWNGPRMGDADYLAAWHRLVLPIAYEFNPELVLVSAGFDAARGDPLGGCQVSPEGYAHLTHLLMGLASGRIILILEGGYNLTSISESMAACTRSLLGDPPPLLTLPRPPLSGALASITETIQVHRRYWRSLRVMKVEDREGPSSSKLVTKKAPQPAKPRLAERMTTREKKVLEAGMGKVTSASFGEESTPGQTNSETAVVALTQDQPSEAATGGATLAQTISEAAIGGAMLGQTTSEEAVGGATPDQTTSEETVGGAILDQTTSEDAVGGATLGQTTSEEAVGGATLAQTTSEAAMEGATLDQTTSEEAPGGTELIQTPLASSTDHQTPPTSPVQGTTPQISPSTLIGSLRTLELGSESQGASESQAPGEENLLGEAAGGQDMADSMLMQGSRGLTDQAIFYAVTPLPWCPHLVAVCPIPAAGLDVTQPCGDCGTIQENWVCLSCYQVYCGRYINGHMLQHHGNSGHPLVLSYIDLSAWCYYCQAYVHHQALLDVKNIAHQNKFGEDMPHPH

CYP2C9 = CYP2C9 (Homo sapiens, UniProt P11712); assay: Inhibition of CYP2C9 (unknown origin) at 10 uM using diclofenac as substrate relative to control; assay type: ADME; settings: probe diclofenac
CYP1A2 = molecular target: T2, CYP1A2 (Homo sapiens, UniProt P05177); assay: Inhibition of CYP1A2 (unknown origin) at 10 uM using phenacetin as substrate relative to control; assay type: ADME; settings: probe phenacetin
T2 sequence (P05177 whole entry): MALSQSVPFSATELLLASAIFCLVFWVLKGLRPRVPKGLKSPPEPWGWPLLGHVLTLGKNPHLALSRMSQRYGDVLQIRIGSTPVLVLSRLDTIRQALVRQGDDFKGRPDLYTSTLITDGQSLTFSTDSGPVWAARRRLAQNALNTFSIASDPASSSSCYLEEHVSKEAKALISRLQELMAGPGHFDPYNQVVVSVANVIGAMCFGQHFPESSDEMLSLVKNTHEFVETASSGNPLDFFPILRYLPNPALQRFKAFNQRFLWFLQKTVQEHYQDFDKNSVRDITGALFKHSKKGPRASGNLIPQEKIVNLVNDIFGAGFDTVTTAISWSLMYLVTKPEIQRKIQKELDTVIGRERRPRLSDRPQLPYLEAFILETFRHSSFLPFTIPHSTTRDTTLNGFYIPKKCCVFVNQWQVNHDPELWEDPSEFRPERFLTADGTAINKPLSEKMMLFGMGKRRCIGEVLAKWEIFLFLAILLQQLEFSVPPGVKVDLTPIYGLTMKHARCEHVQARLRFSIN

[2] = molecular target: Amine oxidase [flavin-containing] A (Homo sapiens, UniProt P21397); assay: Inhibition of human recombinant MAO-A by multimode plate reader assay
[3] = molecular target: Amine oxidase [flavin-containing] B (Homo sapiens, UniProt P27338); assay: Inhibition of human recombinant MAO-B by multimode plate reader assay
Histone deacetylase 8 = Histone deacetylase 8 (Homo sapiens, UniProt Q9BY41); assay: Inhibition of HDAC8 (unknown origin) using Ac-peptide as substrate preincubated for 15 mins followed by substrate addition by fluorescence based microplate reader analysis
Histone deacetylase 11 = Histone deacetylase 11 (Homo sapiens, UniProt Q96DB2); assay: Inhibition of HDAC11 (unknown origin) using Ac-peptide as substrate preincubated for 15 mins followed by substrate addition by fluorescence based microplate reader analysis
MGC-803 [4] = assay: Induction of apoptosis in human MGC-803 cells assessed as apoptotic cells at 5 uM incubated for 48 hrs by annexin V-FITC and PI staining based flowcytometry analysis (Rvb =4.3 %); assay type: functional
MGC-803 [5] = assay: Induction of apoptosis in human MGC-803 cells assessed as increase in Bax protein expression at 1.25 to 7.5 uM incubated for 48 hrs by western blot analysis; assay type: functional, cell-based; settings: dose 1.25-7.5 µM
MGC-803 [6] = assay: Induction of apoptosis in human MGC-803 cells assessed as decrease in Bcl2 protein expression at 1.25 to 7.5 uM incubated for 48 hrs by western blot analysis; assay type: functional, cell-based; settings: dose 1.25-7.5 µM
MGC-803 [7] = assay: Inhibition of cell migration in human MGC-803 cells 0.2 to 0.8 uM up to 24 hrs by wound healing assay; assay type: functional, cell-based; settings: dose 0.2-0.8 µM, time hrs <=24
CYP2D6 = CYP2D6 (Homo sapiens, UniProt P10635); assay: Inhibition of CYP2D6 (unknown origin) at 10 uM using dextromethorphan as substrate relative to control; assay type: ADME; settings: probe dextromethorphan
CYP3A4 = CYP3A4 (Homo sapiens, UniProt P08684); assay: Inhibition of CYP3A4 (unknown origin) at 10 uM using testosterone as substrate relative to control; assay type: ADME; settings: probe testosterone
[8] = Metabolic stability in human liver microsomes assessed as intrinsic clearance in presence of NADPH at 1 uM by LC-MS/MS analysis; assay type: ADME, Microsome; settings: read-out: CLH
HCT-116 = assay: cells; settings: Homo sapiens, HCT-116, 72 h
MGC-803 [9] = assay: cells; settings: Homo sapiens, MGC-803, 72 h

Sequence of Amine oxidase [flavin-containing] B (P27338 whole entry): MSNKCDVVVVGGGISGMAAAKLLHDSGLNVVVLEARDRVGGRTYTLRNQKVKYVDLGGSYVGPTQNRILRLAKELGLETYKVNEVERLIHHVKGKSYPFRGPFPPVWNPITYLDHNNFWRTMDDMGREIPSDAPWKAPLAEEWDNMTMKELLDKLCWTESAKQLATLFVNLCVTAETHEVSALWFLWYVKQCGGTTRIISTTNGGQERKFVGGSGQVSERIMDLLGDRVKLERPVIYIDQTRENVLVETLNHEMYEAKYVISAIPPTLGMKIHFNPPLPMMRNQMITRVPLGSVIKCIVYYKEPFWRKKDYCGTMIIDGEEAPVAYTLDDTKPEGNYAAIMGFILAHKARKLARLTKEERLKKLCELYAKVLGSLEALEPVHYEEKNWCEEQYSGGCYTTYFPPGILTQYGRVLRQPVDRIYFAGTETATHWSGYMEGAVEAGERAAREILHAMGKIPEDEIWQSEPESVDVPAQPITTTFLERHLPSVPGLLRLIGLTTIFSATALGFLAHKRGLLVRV
Sequence of CYP3A4 (P08684 whole entry): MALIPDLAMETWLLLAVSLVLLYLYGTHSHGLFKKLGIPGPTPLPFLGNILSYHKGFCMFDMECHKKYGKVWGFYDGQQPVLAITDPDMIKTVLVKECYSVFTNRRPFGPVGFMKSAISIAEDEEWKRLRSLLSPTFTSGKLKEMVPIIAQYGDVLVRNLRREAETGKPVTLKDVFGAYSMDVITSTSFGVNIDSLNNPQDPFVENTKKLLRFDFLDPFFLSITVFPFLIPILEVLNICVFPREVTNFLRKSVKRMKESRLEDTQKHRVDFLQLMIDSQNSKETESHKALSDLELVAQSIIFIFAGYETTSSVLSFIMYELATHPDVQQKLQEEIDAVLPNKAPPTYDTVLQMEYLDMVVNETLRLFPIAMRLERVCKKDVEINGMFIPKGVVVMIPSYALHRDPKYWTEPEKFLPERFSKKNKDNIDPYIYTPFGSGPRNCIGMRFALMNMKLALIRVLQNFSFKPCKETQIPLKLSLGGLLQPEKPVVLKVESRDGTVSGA
Sequence of CYP2C9 (P11712 whole entry): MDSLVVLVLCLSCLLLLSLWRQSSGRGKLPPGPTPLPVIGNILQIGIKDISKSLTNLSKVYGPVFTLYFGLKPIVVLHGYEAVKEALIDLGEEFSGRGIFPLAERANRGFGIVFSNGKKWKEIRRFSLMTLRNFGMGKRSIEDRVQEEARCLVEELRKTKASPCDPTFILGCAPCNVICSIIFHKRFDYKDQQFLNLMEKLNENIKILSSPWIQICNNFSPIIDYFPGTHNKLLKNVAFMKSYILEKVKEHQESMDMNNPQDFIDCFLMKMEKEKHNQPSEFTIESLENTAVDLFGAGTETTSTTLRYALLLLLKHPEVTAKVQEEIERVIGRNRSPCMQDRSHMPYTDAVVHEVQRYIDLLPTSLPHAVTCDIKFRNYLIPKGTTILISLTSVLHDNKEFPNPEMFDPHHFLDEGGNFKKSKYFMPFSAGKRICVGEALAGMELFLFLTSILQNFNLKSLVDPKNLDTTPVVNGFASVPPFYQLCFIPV
Sequence of Histone deacetylase 5 (Q9UQL6 whole entry): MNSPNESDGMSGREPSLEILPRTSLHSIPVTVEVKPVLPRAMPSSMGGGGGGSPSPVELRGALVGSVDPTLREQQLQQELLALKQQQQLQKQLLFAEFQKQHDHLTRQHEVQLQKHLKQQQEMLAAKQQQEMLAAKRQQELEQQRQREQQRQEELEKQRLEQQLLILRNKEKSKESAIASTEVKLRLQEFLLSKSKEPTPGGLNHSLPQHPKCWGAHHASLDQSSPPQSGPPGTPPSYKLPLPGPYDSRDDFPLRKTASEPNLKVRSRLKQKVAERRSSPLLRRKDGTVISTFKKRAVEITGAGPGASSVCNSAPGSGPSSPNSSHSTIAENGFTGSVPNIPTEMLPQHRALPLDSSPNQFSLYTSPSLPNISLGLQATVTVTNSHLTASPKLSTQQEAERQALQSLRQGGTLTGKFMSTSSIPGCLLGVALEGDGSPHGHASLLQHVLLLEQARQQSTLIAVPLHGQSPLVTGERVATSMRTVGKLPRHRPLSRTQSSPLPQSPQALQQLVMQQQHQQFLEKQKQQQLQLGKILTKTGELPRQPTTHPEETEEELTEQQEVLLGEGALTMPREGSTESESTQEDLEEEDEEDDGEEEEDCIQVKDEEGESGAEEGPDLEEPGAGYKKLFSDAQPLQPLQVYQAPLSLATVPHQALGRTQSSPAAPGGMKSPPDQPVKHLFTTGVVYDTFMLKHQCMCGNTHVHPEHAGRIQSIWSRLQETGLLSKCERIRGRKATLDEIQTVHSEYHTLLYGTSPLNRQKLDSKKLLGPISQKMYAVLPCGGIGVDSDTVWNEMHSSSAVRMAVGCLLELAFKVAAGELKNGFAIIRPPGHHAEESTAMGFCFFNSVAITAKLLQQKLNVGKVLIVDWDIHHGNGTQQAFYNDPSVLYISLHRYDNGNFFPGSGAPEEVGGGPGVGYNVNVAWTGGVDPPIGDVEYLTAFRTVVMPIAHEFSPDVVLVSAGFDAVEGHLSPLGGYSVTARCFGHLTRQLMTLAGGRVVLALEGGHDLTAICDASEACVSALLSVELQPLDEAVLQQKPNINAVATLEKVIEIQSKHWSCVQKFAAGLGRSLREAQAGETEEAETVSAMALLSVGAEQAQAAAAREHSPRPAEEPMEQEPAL
Sequence of Histone deacetylase 1 (Q13547 whole entry): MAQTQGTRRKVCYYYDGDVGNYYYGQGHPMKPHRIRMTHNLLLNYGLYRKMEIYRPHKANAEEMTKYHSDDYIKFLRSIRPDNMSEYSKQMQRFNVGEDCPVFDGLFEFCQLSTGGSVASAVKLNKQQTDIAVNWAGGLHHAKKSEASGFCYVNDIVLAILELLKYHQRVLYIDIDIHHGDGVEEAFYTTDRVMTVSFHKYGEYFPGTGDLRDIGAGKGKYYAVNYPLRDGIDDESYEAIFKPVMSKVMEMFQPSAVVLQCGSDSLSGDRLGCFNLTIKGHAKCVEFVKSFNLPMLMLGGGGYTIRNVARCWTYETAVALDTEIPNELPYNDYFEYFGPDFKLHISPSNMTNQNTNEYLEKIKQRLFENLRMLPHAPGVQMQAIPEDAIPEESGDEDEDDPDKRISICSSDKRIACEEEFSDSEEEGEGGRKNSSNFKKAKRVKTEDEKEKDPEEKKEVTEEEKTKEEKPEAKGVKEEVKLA
Sequence of Histone deacetylase 11 (Q96DB2 whole entry): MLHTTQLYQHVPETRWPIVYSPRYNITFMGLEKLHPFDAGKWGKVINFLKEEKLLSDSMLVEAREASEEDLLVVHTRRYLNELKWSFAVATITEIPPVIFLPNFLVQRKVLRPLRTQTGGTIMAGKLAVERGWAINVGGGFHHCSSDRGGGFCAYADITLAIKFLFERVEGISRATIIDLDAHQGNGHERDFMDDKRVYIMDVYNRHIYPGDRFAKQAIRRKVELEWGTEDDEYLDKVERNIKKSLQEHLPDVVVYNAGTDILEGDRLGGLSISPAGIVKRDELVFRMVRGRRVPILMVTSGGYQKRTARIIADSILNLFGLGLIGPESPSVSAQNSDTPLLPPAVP
Sequence of Histone deacetylase 8 (Q9BY41 whole entry): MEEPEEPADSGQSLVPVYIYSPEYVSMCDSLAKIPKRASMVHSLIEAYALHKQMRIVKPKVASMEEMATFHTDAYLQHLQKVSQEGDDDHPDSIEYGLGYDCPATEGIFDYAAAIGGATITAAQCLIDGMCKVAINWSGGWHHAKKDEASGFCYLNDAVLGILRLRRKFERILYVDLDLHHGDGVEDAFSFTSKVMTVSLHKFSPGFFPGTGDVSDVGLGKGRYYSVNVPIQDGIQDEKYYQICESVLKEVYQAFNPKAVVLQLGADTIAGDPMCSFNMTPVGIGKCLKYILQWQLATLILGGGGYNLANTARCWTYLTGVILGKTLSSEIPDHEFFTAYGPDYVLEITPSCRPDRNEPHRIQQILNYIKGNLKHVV
Sequence of Amine oxidase [flavin-containing] A (P21397 whole entry): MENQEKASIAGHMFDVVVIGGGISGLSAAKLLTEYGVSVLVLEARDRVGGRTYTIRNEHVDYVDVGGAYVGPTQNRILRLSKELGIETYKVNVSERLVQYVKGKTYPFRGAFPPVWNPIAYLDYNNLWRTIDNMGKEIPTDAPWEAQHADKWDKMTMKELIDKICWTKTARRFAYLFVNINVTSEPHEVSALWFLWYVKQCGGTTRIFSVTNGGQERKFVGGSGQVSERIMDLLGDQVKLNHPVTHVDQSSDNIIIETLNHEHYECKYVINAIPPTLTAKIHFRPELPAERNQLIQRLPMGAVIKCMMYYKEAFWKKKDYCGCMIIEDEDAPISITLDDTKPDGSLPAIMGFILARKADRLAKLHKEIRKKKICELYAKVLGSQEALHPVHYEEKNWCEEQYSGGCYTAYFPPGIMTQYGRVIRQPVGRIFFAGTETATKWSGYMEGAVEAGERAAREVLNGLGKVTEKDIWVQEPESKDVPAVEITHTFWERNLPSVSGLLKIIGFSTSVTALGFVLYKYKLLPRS
Sequence of CYP2D6 (P10635 whole entry): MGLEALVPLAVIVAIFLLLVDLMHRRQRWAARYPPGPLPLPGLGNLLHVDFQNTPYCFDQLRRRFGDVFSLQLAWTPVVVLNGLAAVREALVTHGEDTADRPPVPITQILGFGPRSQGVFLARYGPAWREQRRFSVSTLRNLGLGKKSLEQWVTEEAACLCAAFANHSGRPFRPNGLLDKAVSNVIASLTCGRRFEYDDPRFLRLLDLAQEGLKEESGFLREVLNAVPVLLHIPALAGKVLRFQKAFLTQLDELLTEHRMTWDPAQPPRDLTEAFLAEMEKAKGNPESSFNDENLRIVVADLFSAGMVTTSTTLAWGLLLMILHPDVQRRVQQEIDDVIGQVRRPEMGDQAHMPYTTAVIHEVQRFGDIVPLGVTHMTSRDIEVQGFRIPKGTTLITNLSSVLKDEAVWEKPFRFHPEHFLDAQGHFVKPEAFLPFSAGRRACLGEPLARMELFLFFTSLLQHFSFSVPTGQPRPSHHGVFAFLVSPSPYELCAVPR

Row | Compound | IC50 (Histone deacetylase 1) [nM] | IC50 (Histone deacetylase 5) [nM] | IC50 [1] [nM] | inhibition at 10 µM (CYP2C9) [%] | inhibition at 10 µM (CYP1A2) [%] | IC50 [2] [nM] | IC50 [3] [nM] | IC50 (Histone deacetylase 8) [nM] | IC50 (Histone deacetylase 11) [nM] | Activity (MGC-803 [4]) [%] | Activity (MGC-803 [5]) | Activity (MGC-803 [6]) | inhibition (MGC-803 [7]) | inhibition at 10 µM (CYP2D6) [%] | inhibition at 10 µM (CYP3A4) [%] | microsomal CLint at 1 µM [8] [µL/min/mg] | IC50 (HCT-116) [nM] | IC50 (MGC-803 [9]) [nM]
1 | Cc1ccc(-c2cc(/C=C/c3ccc(C(=O)NO)cc3)ccn2)c(F)c1 | 370 | > 10000 | 15 | 11.7 | 0.95 | > 100000 | > 100000 | 8780 | 4930 | 82.2 | Dose-Dependent Effect | Dose-Dependent Effect | Dose-Dependent Effect | 5.8 | 47.6 | 67.4 | 800 | 770
2 | O=C(NO)c1ccc(/C=C/c2ccnc(-c3ccccc3O)c2)cc1 | 220 | > 10000 | 47 | 13.1 | 48.4 | 34100 | 69400 | 4620 | > 10000 | 71.9 | Dose-Dependent Effect | Dose-Dependent Effect | Dose-Dependent Effect | 15 | 87.9 | 105 | 1450 | 1420
